Source: US20120190752A1, “EXO-S-MECAMYLAMINE METHOD, USE, AND COMPOUND FOR TREATMENT” (Targacept Inc., priority 2009, published 2012)

Test system: subjects with major depressive disorder (MDD) who were inadequate responders to citalopram
Assay: SGI-Cog (Subject Global Impression-Cognition) with Attention, Memory, Speed subscales, Phase 2b add-on trial
Format: in vivo, human
Parameters: SGI-Cognition Adj. Mean / SGI-Attention Adj. Mean / SGI-Memory Adj. Mean / SGI-Speed Adj. Mean / SGI-Cog TOTAL Adjusted Mean / SGI-Cog MEMORY Adjusted Mean / SGI-Cog ATTENTION Adjusted Mean / SGI-Cog SPEED OF THINKING Adjusted Mean: scale not given here
Settings: for SGI-Cog ATTENTION Adjusted Mean / SGI-Cog ATTENTION Mean Difference between TC-5214 and Placebo / SGI-Cog MEMORY Adjusted Mean / SGI-Cog MEMORY Mean Difference between TC-5214 and Placebo / SGI-Cog SPEED OF THINKING Adjusted Mean / SGI-Cog SPEED OF THINKING Mean Difference between TC-5214 and Placebo / SGI-Cog TOTAL Adjusted Mean / SGI-Cog TOTAL Mean Difference between TC-5214 and Placebo: Double Blind Week 16; for SGI-Attention Adj. Mean / SGI-Memory Adj. Mean / SGI-Speed Adj. Mean / SGI-Cognition Adj. Mean / SGI-Attention Difference vs placebo / SGI-Cognition Difference vs placebo / SGI-Memory Difference vs placebo / SGI-Speed Difference vs placebo: ITT; for SGI-Attention Adj. Mean / SGI-Memory Adj. Mean / SGI-Speed Adj. Mean / SGI-Cognition Adj. Mean: assessed at endpoint (Week 16), patient rated change from baseline; for SGI-Cognition Adj. Mean: sum of 3 items; for SGI-Attention Difference vs placebo / SGI-Cognition Difference vs placebo / SGI-Memory Difference vs placebo / SGI-Speed Difference vs placebo: endpoint (Week 16)
Method: In more detail, a multi-center double-blind, randomized, placebo-controlled, parallel group, flexible dose titration study of TC-5214 as adjunctive therapy in subjects with major depressive disorder (MDD) who were inadequate responders to citalopram was conducted in centers in the US and India. The study consisted of a screening period, baseline/washout period, open-label phase, double-blind phase, and a follow-up visit. Subject participation in the study could continue for up to 16 weeks of treatment. Following a washout period of up to 28 days for other antidepressants, subjects with MDD and a MADRS total score >/=28 and a Clinical Global Impression-Severity (CGI-S) score >/=4 were enrolled on Day 1 into an open-label citalopram-only phase of the study. This phase lasted 8 weeks, with citalopram (CIT) dose increased from a once-daily dose of 20 mg (Day 1 through Week 4) to 40 mg (Week 4 through Week 8). A total of 579 subjects entered the open-label citalopram phase. At Week 8, subjects who tolerated 40 mg CIT, but whose MADRS score was reduced <50% from baseline and no lower than 17, and CGI-S≧4, were considered inadequate responders. These subjects (n=270) were randomized in a double-blind fashion to receive either placebo or TC-5214-23 as add-on therapy to continued CIT. The double-blind phase of the study also lasted 8 weeks (Week 8 to Week 16). Study drug, TC-5214-23 or placebo, was started at 2 mg daily (1 mg twice per day [BID] dosing), added on to continuing CIT (40 mg PO qd). After 2 weeks of treatment, the dose of TC-5214 could be increased to 4 mg (2 mg BID) or continued unchanged, with up-titration based upon good tolerability and inadequate therapeutic response. After a further 2 weeks, the dose of TC-5214 could be increased again to 8 mg (4 mg BID) if judged appropriate by the investigator, based upon good tolerability and inadequate therapeutic response. At any time during the double-blind phase of the study, placebo or TC-5214-23 could be reduced to the previous dose level following the emergence of unacceptable adverse events (AEs). […] At this follow-up, any signs or symptoms of relapse were evaluated. If a subject was prematurely discontinued from the study between Week 8 and Week 16 for any reason, the investigator was to make every effort to perform all evaluations as per protocol, assuming the subject had reached the end of the double-blind add-on treatment phase. These evaluations were to be made as soon as possible and within 2 weeks of discontinuation. […] There was no meaningful difference in results as a function of age, gender, site, or smoking status. [table] With regard to efficacy endpoints, the following tables present efficacy used in the ITT (Intent-to-Treat) and PP (Per Protocol) populations unless otherwise specific. The primary inference was based upon Week 16 visit using the ITT population. Change from baseline was obtained by subtracting the baseline values from the individual on-treatment values. Change from Week 16 was obtained by subtracting the Week 16 values from the individual follow-up visit (Week 18/19) values. If either the baseline or Week 16 or on-treatment or follow-up value was missing, the change from baseline or Week 16 value was also set to missing. To account for missing data, the last observation carry forward (LOCF) method was used for the ITT and PP populations. Thus, the last available on-therapy observation for a subject, including the observation at premature discontinuation, was used to estimate subsequent missing data points. For efficacy, baseline data were collected at Week 8 in the double-blind augmentation phase electronic case report form pages. With regard to SGI-Cog, the endpoint was the Week 16 results for the SGI-Cog. The Week 16 SGI-Cog composite score and each scale were analyzed at Week 16 using ANOVA. […]

## CNC1(C)C2CCC(C2)C1(C)C (stereo in doubt) [TC-5214, (S)—N,2,3,3-tetramethylnorbornan-2-amine]
ITT Population
  SGI-Cog ATTENTION Adjusted Mean: 2.13
  SGI-Cog ATTENTION Mean Difference between TC-5214 and Placebo: 0.72
  SGI-Cog MEMORY Adjusted Mean: 2.23
  SGI-Cog MEMORY Mean Difference between TC-5214 and Placebo: 0.67
  SGI-Cog SPEED OF THINKING Adjusted Mean: 2.16
  SGI-Cog SPEED OF THINKING Mean Difference between TC-5214 and Placebo: 0.76
  SGI-Cog TOTAL Adjusted Mean: 6.52
  SGI-Cog TOTAL Mean Difference between TC-5214 and Placebo: 2.15
  SGI-Attention Adj. Mean: 2.13 (0.09)
  SGI-Memory Adj. Mean: 2.23 (0.09)
  SGI-Speed Adj. Mean: 2.16 (0.09)
  SGI-Cognition Adj. Mean: 6.52 (0.27)
  SGI-Attention Difference vs placebo: −0.72 (−0.96, −0.47)
  SGI-Cognition Difference vs placebo: −2.15 (−2.89, −1.41)
  SGI-Memory Difference vs placebo: −0.67 (−0.93, −0.42)
  SGI-Speed Difference vs placebo: −0.76 (−1.02, −0.50)
Listed as TC-5214 + CIT
  SGI-Attention Adj. Mean: 2.13
  SGI-Memory Adj. Mean: 2.23
  SGI-Speed Adj. Mean: 2.16
  SGI-Cognition Adj. Mean: 6.52
  SGI-Attention Difference vs placebo: −0.72
  SGI-Cognition Difference vs placebo: −2.15
  SGI-Memory Difference vs placebo: −0.67
  SGI-Speed Difference vs placebo: −0.76
PP Population
  SGI-Cog ATTENTION Adjusted Mean: 2.03
  SGI-Cog ATTENTION Mean Difference between TC-5214 and Placebo: 0.76
  SGI-Cog MEMORY Adjusted Mean: 2.15
  SGI-Cog MEMORY Mean Difference between TC-5214 and Placebo: 0.68
  SGI-Cog SPEED OF THINKING Adjusted Mean: 2.05
  SGI-Cog SPEED OF THINKING Mean Difference between TC-5214 and Placebo: 0.81
  SGI-Cog TOTAL Adjusted Mean: 6.23
  SGI-Cog TOTAL Mean Difference between TC-5214 and Placebo: 2.25
Week 16, ITT and PP populations, result in words
  Total SGI-Cog scores compared with placebo: statistically significant lower
